Patent publication US20250155433A1, “FLUORESCENT SENSORS FOR DETECTION OF SIDEROPHORES AND OTHER MOLECULES PRODUCED BY BACTERIAL PATHOGENS” (Kansas State University Research Foundation, priority 2021, published 2025)
Where a SMILES comes first, the peptide text is derived from it. [ ]: non-standard residue; d: D form. Orn(N5-OH,N5-Ac) = CC(=O)N(O)CCC[C@H](N)C(=O)O

Columns and labels:
EcoIutA = biological target: T1, EcoIutA (Escherichia coli, UniProt P14542, T573C); test: Fluorescence quenching binding to EcoIutA-FM sensor; settings: for Binding by IutA: other ferric hydroxamates
T1 construct: expressed in transfected cells; host or cells: E. coli OKN3/OKN13/OKN359/OKN1359 carrying a pITS23 derivative
Experimental: (§1) Fluorescence modifications. For modifications with maleimide fluorophores, we inoculated E. coli strains OKN3, OKN13, OKN359 or OKN1359, harboring plasmids that encoded a Cys mutant LGP, from frozen stocks into LB, grew them overnight and sub-cultured at 1% into iron-deficient MOPS minimal media, with shaking (200 rpm) at 37° C. for 10-12 h, until late exponential phase. After collecting the cells by centrifugation at 7500×g for 15 min, and washing with 50 mM NaHPO4, pH 6.7, we labeled the Cys-mutant LGP with 5 μM FM in 50 mM NaHPO4, pH 6.7 for 15 min at 37° C. FM. We terminated the labeling reactions with 100 μM β-mercaptoethanol. After collecting the fluoresceinated cells by centrifugation at 7500×g for 15 min, and washing with 50 mM NaHPO4, pH 6.7, we re-suspended them in PBS plus 0.2% glucose. We either immediately used the labeled cells in spectroscopic experiments, or rested them on ice (up to 24 h), or added glycerol to 15% and stored them (indefinitely) as 1 mL aliquots at −70° C. In the latter case, after thawing the labeled cells we pelleted them by centrifugation in a microfuge, washed them once with and re-suspended them in PBS containing 0.2% glucose. Lastly, for evaluation of protein expression or the extent of FM-labeling we solubilized aliquots of the cell suspensions with sample buffer, and subjected them to SDS-PAGE. After electrophoresis, we first visualized the fluorescence labeling on a Typhoon 8600 Biomolecular Scanner (GE/Amersham), and then stained the gels with Coomassie blue R (153).
(§2) Fluorescence spectroscopic binding determinations. We observed fluorophore-labeled cells in an SLM AMINCO 8100 fluorescence spectrometer, upgraded with an OLIS operating system and software (OLIS SpectralWorks, OLIS Inc., Bogart, GA), to control its shutters, polarizers and data collection. We also utilized an OLIS Clarity fluorescence spectrometer for fluorescence assays. For binding determinations we deposited 2.5×10^7 labeled cells in a quartz cuvette (final volume, 2 mL) with stirring at 37° C., measured the initial fluorescence (F0), and then added increasing concentrations of an iron complex while monitoring the quenching of fluorescence emissions (F) at 520 nm. We performed each measurement in triplicate and calculated the mean value of F/F0 at each ligand concentration. We plotted 1−F/F0 vs [ligand] and analyzed the data by the 1-site binding model of Grafit 6.0.12 (Erithacus Ltd. West Sussex, UK), that fits data to a single site saturation curve, where the amount of ligand bound is plotted as a function of the amount free: […]
(§3) Table 1 lists KD values from analysis of fluorescence quenching with ferric or apo (parenthetic values) siderophores or porphyrins. […]

[1] = biological target: T2, HsaSCN (human siderocalin) (Homo sapiens, UniProt P80188, Q148C); test: Fluorescence quenching binding to purified HsaSCN-FM sensor; settings: read-out: KD, HsaSCN-FM
T2 construct: adds a 6H-tag at either the N- or C-termini of the mature proteins; 6-His (N); made in house; host or cells: E. coli BL21 (pET28), IPTG-induced; purified on Talon Superflow

EcoFhuA = EcoFhuA (Escherichia coli, UniProt P06971); test: Fluorescence quenching binding to EcoFhuA-FM sensor; settings: read-out: Affinity (KD) of sensor EcoFhuA; ferric complexes; Cys residue D396C, FM-labeled; NB = no binding
Experimental: as §1, §2, §3

CRE/ESKAPE pathogens = test: Decoy sensor measurements of metal complex uptake by bacteria; assay type: cell-based; settings: decoy sensors in TonB-deficient E. coli, 37° C., strains grown in iron-deficient MOPS
Excerpt: Fluorescence spectroscopic uptake measurements. We employed FD sensors to monitor TonB-dependent uptake of various siderophores by bacterial pathogens. In the fluorescence spectroscopic uptake studies E. coli OKN13 (ΔtonB, ΔfepA) or OKN1359 (ΔtonB, Δfiu, ΔfepA, Δcir) were host strains for pITS23 derivatives carrying single Cys mutants of an LGP of interest. The FLGP were decoy sensors that monitored ferric siderophore uptake by test strains. For each assay we used 10^7 sensor cells (e.g., OKN13/pFepA-FM (53)) in a 2 mL quartz cuvette containing PBS+0.2% glucose at 37° C. After recording fluorescence intensity for 100 seconds, we added an iron complex (e.g., FeEnt) at a final concentration of ˜10 nM. After incubating the sample for 100 seconds, during which time fluorescence was quenched (e.g., ˜60% quenching for EcoFepA_A698C-FM), we added 0.5-2×10^7 cells of the test strain (E. coli MG1655, K. pneumoniae Kp52.145, A. baumannii 17978, P. aeruginosa PA01, E. cloacae) and monitored the time-course of fluorescence emissions at 520 nm for 15-40 minutes, with stirring.

AbaBauA = AbaBauA (Acinetobacter baumannii, UniProt Q76HJ9, S407C); test: Fluorescence quenching binding to AbaBauA-FM sensor; settings: read-out: Affinity (KD) of sensor AbaBauA; ferric complexes; Cys residue S385C, FM-labeled; NB = no binding
Experimental: (§4) Fluorescence modifications. For modifications with maleimide fluorophores, we inoculated E. coli strains OKN3, OKN13, OKN359 or OKN1359, harboring plasmids that encoded a Cys mutant LGP, from frozen stocks into LB, grew them overnight and sub-cultured at 1% into iron-deficient MOPS minimal media, with shaking (200 rpm) at 37° C. for 10-12 h, until late exponential phase. After collecting the cells by centrifugation at 7500×g for 15 min, and washing with 50 mM NaHPO4, pH 6.7, we labeled the Cys-mutant LGP with 5 μM FM in 50 mM NaHPO4, pH 6.7 for 15 min at 37° C. FM. We terminated the labeling reactions with 100 μM β-mercaptoethanol. […] After electrophoresis, we first visualized the fluorescence labeling on a Typhoon 8600 Biomolecular Scanner (GE/Amersham), and then stained the gels with Coomassie blue R (153).
(§5) Fluorescence spectroscopic binding determinations. We observed fluorophore-labeled cells in an SLM AMINCO 8100 fluorescence spectrometer, upgraded with an OLIS operating system and software (OLIS SpectralWorks, OLIS Inc., Bogart, GA), to control its shutters, polarizers and data collection. We also utilized an OLIS Clarity fluorescence spectrometer for fluorescence assays. […] We performed each measurement in triplicate and calculated the mean value of F/F0 at each ligand concentration. […]

AbaPiuA = AbaPiuA (Acinetobacter baumannii, UniProt D0CAH3, S724C); test: Fluorescence quenching binding to AbaPiuA-FM sensor
Experimental: as §1, with “In the latter case, after thawing the labeled cells we pelleted them by centrifugation in a microfuge, washed them once with and re-suspended them in PBS containing 0.2% glucose. Lastly, for evaluation of protein expression or the extent of FM-labeling we solubilized aliquots of the cell suspensions with sample buffer, and subjected them to SDS-PAGE.” left out
as §2, with “concentration.” for “concentration. We plotted 1−F/F0 vs [ligand] and analyzed the data by the 1-site binding model of Grafit 6.0.12 (Erithacus Ltd. West Sussex, UK), that fits data to a single site saturation curve, where the amount of ligand bound is plotted as a function of the amount free:”
as §3

EcoFiu = biological target: T3, EcoFiu (Escherichia coli, UniProt P75780, A694C); test: biochemical; assay type: binding
T3 construct: expressed in transfected cells; host or cells: E. coli OKN3/OKN13/OKN359/OKN1359 carrying a pITS23 derivative
Experimental: as §1
Fluorescence spectroscopic binding determinations. We observed fluorophore-labeled cells in an SLM AMINCO 8100 fluorescence spectrometer, upgraded with an OLIS operating system and software (OLIS SpectralWorks, OLIS Inc., Bogart, GA), to control its shutters, polarizers and data collection. We also utilized an OLIS Clarity fluorescence spectrometer for fluorescence assays. For binding determinations we deposited 2.5×10^7 labeled cells in a quartz cuvette (final volume, 2 mL) with stirring at 37° C., measured the initial fluorescence (F0), and then added increasing concentrations of an iron complex while monitoring the quenching of fluorescence emissions (F) at 520 nm. We performed each measurement in triplicate and calculated the mean value of F/F0 at each ligand concentration. We plotted 1−F/F0 vs [ligand] and analyzed the data by the 1-site binding model of Grafit 6.0.12 (Erithacus Ltd. West Sussex, UK), that fits data to a single site saturation curve, where the amount of ligand bound is plotted as a function of the amount free:
These plots yielded KD values for each of the receptor-ligand interactions, with associated standard errors.
Table 1 lists KD values from analysis of fluorescence quenching with ferric or apo (parenthetic values) siderophores or porphyrins. For each determination, we measured the extent of fluorescence quenching of an FLGP, when exposed to sequentially increasing concentrations of the listed metal complexes, as plotted in FIGS. 2-4. We performed each experiment 2 or 3 times. The tabulated KD values are from single, representative experiments, in which we collected each data point in triplicate, plotted F/F0 vs [ligand] for each quenching titration, and fitted the curves to a single site binding model using Grafit 6.012 (Erithacus Ltd, […], UK).

KpnFepA2380 = test: Fluorescence quenching binding to KpnFepA2380-FM sensor; set-up: species or system Klebsiella pneumoniae; settings: ferric complexes; Cys residue T255C, FM-labeled; NB = no binding; read-out: Affinity (KD) of sensor KpnFepA 2380
Experimental: as §4, §5

PaeFpvA = biological target: T4, PaeFpvA (Pseudomonas aeruginosa, UniProt P48632, T660C); test: Fluorescence quenching binding to PaeFpvA-FM sensor; settings: secondary ligands
T4 construct: expressed in transfected cells; host or cells: E. coli OKN3/OKN13/OKN359/OKN1359 carrying a pITS23 derivative
Experimental: as §4, §5

Q: For `CC(=O)N(O)CCCC[C@H](NC(=O)CC(O)(CC(=O)N[C@@H](CCCCN(O)C(C)=O)C(=O)O)C(=O)O)C(=O)O` [Abn, aerobactin], which Kd (EcoIutA) is on record?
A: The Kd was 1.4 µM.

Q: What does the source list for `CC(=O)N(O)CCC[C@@H]1NC(=O)CNC(=O)CNC(=O)CNC(=O)[C@H](CCCN(O)C(C)=O)NC(=O)[C@H](CCCN(O)C(C)=O)NC1=O.[Fe+3]` [Fc, ferrichrome] (cyclo(GGG[Orn(N5-OH,N5-Ac)][Orn(N5-OH,N5-Ac)][Orn(N5-OH,N5-Ac)]))?
A: Kd [1]: 0.11 µM; Kd (EcoFhuA): 0.003 µM; Binding by IutA (EcoIutA): did not measurably bind

Q: Which Kd (EcoFhuA) does the source give for `C/C(=C\C(=O)N(O)CCC[C@@H]1NC(=O)CNC(=O)[C@H](CO)NC(=O)[C@H](CO)NC(=O)[C@H](CCCN(O)C(=O)/C=C(\C)CC(=O)O)NC(=O)[C@H](CCCN(O)C(=O)/C=C(\C)CC(=O)O)NC1=O)CC(=O)O.[Fe+3]` [FcA] here?
A: Its Kd is 0.06 µM.

Q: And the “Binding by IutA” value (EcoIutA)?
A: Its value is “did not measurably bind”.

Q: `CC(=O)N([O-])CCCC[C@H](NC(=O)CC(O)(CC(=O)N[C@@H](CCCCN([O-])C(C)=O)C(=O)O)C(=O)[O-])C(=O)O.[Fe+3]` [FeAbn, ferric aerobactin] was tested. Which “TonB-dependent uptake by test strains” value (CRE/ESKAPE pathogens) did it give?
A: Its value is “uptake of FeAbn by all the strains except A. baumannii”.

Q: What does the source list for `O=C([C@@H]1CSC(c2cccc(O)c2O)=N1)N(O)CCc1c[nH]cn1.[Fe+3]` [FeAgn]?
A: Kd [1]: 0.16 µM; Kd (AbaBauA): 1.1 µM

Q: For `O=C(N[C@@H](CO)C(=O)O)c1cccc(O)c1O.[Fe+3]` [FeDHBS], which “Binding by AbaPiuA” value (AbaPiuA) is on record?
A: Its value is “did not bind”.

Q: `O=C(O)c1cccc(O)c1O.[Fe+3]` [FeDHB] was tested. Which “Binding by EcoFiu” value (EcoFiu) did it give?
A: The value was “did not bind”.

Q: What about the Kd (KpnFepA2380) of the same molecule?
A: Its Kd is 22 µM.

Q: What about the “Binding by PaeFpvA” value (PaeFpvA) of the same molecule?
A: The value was “weakly bound”.
